The text below walks through data of paper PMC7468285, “The operational model of allosteric modulation of pharmacological agonism” (Scientific Reports, 2020).

Several values for one entry are separate records, joined by “and”; a condition that tells them apart may be missing. Equal values may be shown once. Read-outs that look alike come from different tables or passages of the source.

In general, pEC50 refers to −log10 of the EC50, conventionally taken in molar units. A lower pEC50 goes with a large EC50.

Test [1] deals with T1, M1 muscarinic receptor (Homo sapiens, UniProt P11229).
T1 construct: expressed in transfected cells; host or cells: CHO cells
T1 sequence (P11229 1-460): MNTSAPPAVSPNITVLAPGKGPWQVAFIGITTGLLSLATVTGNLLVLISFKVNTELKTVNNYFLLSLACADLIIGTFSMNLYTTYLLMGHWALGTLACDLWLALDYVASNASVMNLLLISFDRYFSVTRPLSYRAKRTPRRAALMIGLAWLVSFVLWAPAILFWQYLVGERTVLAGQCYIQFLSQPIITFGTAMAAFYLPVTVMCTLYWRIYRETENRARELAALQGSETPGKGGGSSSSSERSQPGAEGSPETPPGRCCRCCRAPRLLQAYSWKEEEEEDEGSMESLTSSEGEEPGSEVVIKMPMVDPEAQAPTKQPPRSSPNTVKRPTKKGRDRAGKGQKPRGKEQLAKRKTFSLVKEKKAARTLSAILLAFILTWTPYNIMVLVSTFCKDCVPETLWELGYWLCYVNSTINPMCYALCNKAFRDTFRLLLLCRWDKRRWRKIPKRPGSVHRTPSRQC
It counts as cell-based. The following applies: for τA / EMAX: Table S3B, global fit; for τA: EMAX as shared parameter; for EMAX: EMAX estimated as shared parameter of all 4 curves; for α (factor of binding cooperativity) / β (factor of operational cooperativity): functional, global fit of Eq. (14). The procedure:
(§1) CHO cells were grown to confluence in 75 cm^2 flasks in Dulbecco’s modified Eagle’s medium (DMEM) supplemented with 10% fetal bovine serum. Two million cells were subcultured in 100 mm Petri dishes. The medium was supplemented with 5 mM sodium butyrate for the last 24 h of cultivation to increase receptor expression. Cells were washed with phosphate-buffered saline and manually harvested on day 5 after subculture and centrifuged for 3 min at 250 × g. The pellet was suspended in 10 ml of ice-cold homogenization medium (100 mM NaCl, 20 mM Na-HEPES, 10 mM EDTA, pH = 7.4) and homogenized on ice by two 30 s strokes using a Polytron homogenizer (Ultra-Turrax; Janke & Kunkel GmbH & Co. KG, IKA-Labortechnik, Staufen, Germany) with a 30-s pause between strokes. Cell homogenates were centrifuged for 5 min at 1,000 × g. The supernatant was collected and centrifuged for 30 min at 30,000 × g. Pellets were suspended in the washing medium (100 mM, 10 mM MgCl2, 20 mM Na-HEPES, pH = 7.4), left for 30 min at 4 °C, and then centrifuged again for 30 min at 30,000 × g. Resulting membrane pellets were kept at -80 °C until assayed.
Accumulation of inositol phosphates (IPX) was assayed in cells in suspension. IPX was determined after separation on ion-exchange columns (Dowex 1X8-200, Sigma, USA). Cells were harvested by mild trypsinization and resuspended in KHB and centrifuged 250 g for 3 min. Cells were resuspended in KHB supplemented with 500 nM [^3H]myo-inositol (ARC, USA) and incubated at 37 °C for 1 h. Then they were washed once with an excess of KHB, resuspended in KHB containing 10 mM LiCl, and incubated for 1 h at 37 °C in the presence of indicated concentrations of agonists and/or allosteric modulator. Incubation was terminated by the addition of 0.5 ml of stopping solution (chloroform: methanol: HCl; 2: 1: 0.1) and placed in 4 °C for 1 h. An aliquot (0.6 ml) of the upper (aqueous) phase was taken and loaded onto ion-exchange columns. Columns were washed with 10 ml of deionized water and 20 ml of 60 mM ammonium formate/5 mM sodium borate solution. IPX were collectively eluted from columns by 4 ml of 1 M ammonium formate-0.1 M/formic acid buffer.
(§2) Where [D] and KD are concentration and equilibrium dissociation constant of the tracer ([^3H]NMS), [A] and KA are concentration and equilibrium dissociation constant of the agonist. Parameters KB and α1 obtained by fitting of Eq. (29) to binding data in the absence of the agonist.31 Concentration-responsecurvey=basal+EMAX′-basal∗x^nH/x^nH+EC50nH where y is response normalized to basal activity in the absence of allosteric ligand at concentration x, E'MAX is the apparent maximal response, EC50 is concentration causing half-maximal effect, and nH is Hill coefficient.

The target in test [2] is T1, M1 muscarinic receptor. The format is binding. How it is done:
as §1
All radioligand binding experiments were optimized and carried out according to general guidelines. […] Agonist binding was determined in competition experiments with 1 nM [^3H]NMS. Nonspecific binding was determined in the presence of 10 μM atropine. Incubation was terminated by filtration through Whatman GF/C glass fibre filters (Whatman) using a Brandel harvester (Brandel, USA). […] The filters were cooled and counted in a Wallac Microbeta scintillation counter (Wallac, Finland).
Data from experiments were processed in Libre Office and then analysed and plotted using program Grace (https://plasma-gate.weizmann.ac.il/Grace). […] Inhibition constant KI was calculated as:28 KI=IC50/1+D/KD where [D] is the concentration of radioligand used and KD is its equilibrium dissociation constant.
Interaction between tracer ([^3H]NMS) and allosteric modulator:29 y=D+KD/D+KDKB+x/KB+xα where y is specific radioligand binding at concentration x of the allosteric modulator as per cent of binding in the absence of allosteric modulator. Where [D] and KD are concentration and equilibrium dissociation constant of the tracer ([^3H]NMS). The equilibrium dissociation constant of the allosteric modulator KB and factor of binding cooperativity α are obtained by fitting of Eq. (29) to data.
as §2, with “Interaction between tracer ([^3H]NMS) and allosteric modulator in the presence of an agonist at fixed concentration:30 y=D+KD/D+KDAKB+Bα2+KAKB+B/KAKB+Bα1 where y is specific radioligand binding at concentration x of the allosteric modulator as per cent of binding in the absence of allosteric modulator. Where” for “Where”

As to `Cc1ccccc1CN1CCC(N2CCC(n3c(=O)[nH]c4ccccc43)CC2)CC1` [TBPB, 3-[1-[1-[(2-methylphenyl)methyl]piperidin-4-yl]piperidin-4-yl]-1H-benzimidazol-2-one], on M1 muscarinic receptor [1], the “E’MAX” value is 56.0 ± 2.2 and 57.8 ± 3.3 and 57.9 ± 1.4; the “E′MAX of response compared with carbachol” value is “close to E′MAX of full agonist carbachol”; the basal was 52.7 and 53.2 and 51.3; the “effect on EC′50 of carbachol and iperoxo” value was “increased EC′50 values”. Further, on M1 muscarinic receptor [1], the nH is 1.15 ± 0.18 and 1.18 ± 0.20 and 0.85 ± 0.15; the τA is recorded as 1.26 ± 334; the EMAX is on record as 98 ± 53. For the same compound, the “binding cooperativity α in functional experiments compared with binding experiments” value at M1 muscarinic receptor [1] (Figs. 14 and 15 vs Fig. 12) is “about twice stronger”. Moreover, on M1 muscarinic receptor [1] (fixed concentrations of allosteric ligand), the “effect on E′MAX of carbachol and iperoxo” value is reported as “decreased E′MAX values”. At M1 muscarinic receptor [1] (with carbachol), the “α (factor of binding cooperativity)” value was 0.48 ± 0.05 and the “β (factor of operational cooperativity)” value is given as 0.80 ± 0.05. At M1 muscarinic receptor [1] (with iperoxo), the “α (factor of binding cooperativity)” value was 0.51 ± 0.08 and the “β (factor of operational cooperativity)” value is 0.78 ± 0.08. On M1 muscarinic receptor [1] (iperoxo + 1 µM TBPB), the “E’MAX” value is on record as 59.7 ± 3.9 fold-over basal, the basal worked out at 51.3 fold-over basal and the nH was determined as 1.18 ± 0.20. Besides, on M1 muscarinic receptor [1] (iperoxo + 3 µM TBPB), the “E’MAX” value worked out at 58.0 ± 4.8 fold-over basal, the basal worked out at 52.7 fold-over basal and the nH is listed as 0.82 ± 0.20. At M1 muscarinic receptor [1] (iperoxo + 10 µM TBPB), the “E’MAX” value came to 57.6 ± 2.9 fold-over basal, the basal came to 53.2 fold-over basal and the nH came out at 1.19 ± 0.22. In addition, at M1 muscarinic receptor [1] (ligand alone, Eq. (31)), the “E’MAX (apparent maximal response)” value is reported as 54.4 ± 0.9 fold-over basal and the “nH (slope)” value was 1.01 ± 0.08. Also, on M1 muscarinic receptor [1] (with both carbachol and iperoxo, indicated by E′MAX change), the “operational cooperativity β” value is reported as under 1. Also, at M1 muscarinic receptor [2] (Eq. (29)), the “αNMS (factor of binding cooperativity with NMS)” value was determined as 0.002 ± 0.001. Besides, on M1 muscarinic receptor [2] (allosteric ligand alone), the “inhibition of [3H]NMS binding” value is listed as “completely inhibited”. In addition, on M1 muscarinic receptor [2] (binding experiments, Eq. (30)), the “αcarbachol (factor of binding cooperativity with carbachol)” value came to 0.7 ± 0.3 and the “αiperoxo (factor of binding cooperativity with iperoxo)” value is 0.8 ± 0.4. For the same compound, the “decrease in affinity of [3H]NMS” value at M1 muscarinic receptor [2] (fit of Eq. (29), TBPB estimate with high uncertainty) is listed as 500 fold. For the same compound, at M1 muscarinic receptor [2] (fit of Eq. (30), high degree of uncertainty), the “binding cooperativity with carbachol and iperoxo” value is “slightly negative”.

Regarding `C[N+](C)(C)CC#CCOC1=NOCC1` [iperoxo], on M1 muscarinic receptor [1], the τA turned out to be 1.97 ± 708 and the EMAX is on record as 98 ± 53. At M1 muscarinic receptor [1] (agonist alone), this compound gave a basal of 1 fold-over basal. On M1 muscarinic receptor [1] (functional experiments), the efficacy ranking result is given as “greater efficacy than carbachol”. Further, at M1 muscarinic receptor [1] (ligand alone, Eq. (31)), the “E’MAX (apparent maximal response)” value came to 64.7 ± 0.5 fold-over basal, the “nH (slope)” value came out at 1.04 ± 0.02 and the pEC50 was determined as 9.42 ± 0.01. On M1 muscarinic receptor [1] (ligand alone, Eq. […]), the “operational efficacy τ (τA / τB)” value is recorded as 1.86 ± 0.04 and the “pKA / pKB (functional)” value came to 8.96 ± 0.02. The “flow (fraction of low-affinity sites)” value on M1 muscarinic receptor [2] (Eq. (27)) stood at 51 ± 5%. The “high-affinity binding (candidate KA)” value on M1 muscarinic receptor [2] (competition with [3H]NMS, high-affinity sites) was found to be 200 pM. The pIC50high at M1 muscarinic receptor [2] (high-affinity sites, 1 nM [3H]NMS, Eq. (27)) was 8.99 ± 0.05. Further, the pKIhigh on M1 muscarinic receptor [2] (high-affinity sites, 1 nM [3H]NMS, calculated from IC50 by Eq. (28)) was 9.70 ± 0.05. For the same compound, on M1 muscarinic receptor [2] (low-affinity sites, 1 nM [3H]NMS, Eq. (27)), the pIC50low turned out to be 5.96 ± 0.04. Moreover, the pKIlow on M1 muscarinic receptor [2] (low-affinity sites, 1 nM [3H]NMS, calculated from IC50 by Eq. (28)) was 6.66 ± 0.04.
